One may read the IC50 as the concentration needed to halve the response being measured.

Data on 1 compound can be found in article PMC11460631, “Inhibition of transient receptor potential vanilloid 3 channels by antimalarial hydroxychloroquine alleviates TRPV3-dependent dermatitis” (The Journal of Biological Chemistry, 2024).

SMILES strings stand for the structures.

The target of experiment [1] is T1, mTRPV1 (Mus musculus, UniProt Q704Y3).
T1 construct: YFP or GFP; expressed in transfected cells; host or cells: HEK293T
T1 sequence (Q704Y3 whole entry): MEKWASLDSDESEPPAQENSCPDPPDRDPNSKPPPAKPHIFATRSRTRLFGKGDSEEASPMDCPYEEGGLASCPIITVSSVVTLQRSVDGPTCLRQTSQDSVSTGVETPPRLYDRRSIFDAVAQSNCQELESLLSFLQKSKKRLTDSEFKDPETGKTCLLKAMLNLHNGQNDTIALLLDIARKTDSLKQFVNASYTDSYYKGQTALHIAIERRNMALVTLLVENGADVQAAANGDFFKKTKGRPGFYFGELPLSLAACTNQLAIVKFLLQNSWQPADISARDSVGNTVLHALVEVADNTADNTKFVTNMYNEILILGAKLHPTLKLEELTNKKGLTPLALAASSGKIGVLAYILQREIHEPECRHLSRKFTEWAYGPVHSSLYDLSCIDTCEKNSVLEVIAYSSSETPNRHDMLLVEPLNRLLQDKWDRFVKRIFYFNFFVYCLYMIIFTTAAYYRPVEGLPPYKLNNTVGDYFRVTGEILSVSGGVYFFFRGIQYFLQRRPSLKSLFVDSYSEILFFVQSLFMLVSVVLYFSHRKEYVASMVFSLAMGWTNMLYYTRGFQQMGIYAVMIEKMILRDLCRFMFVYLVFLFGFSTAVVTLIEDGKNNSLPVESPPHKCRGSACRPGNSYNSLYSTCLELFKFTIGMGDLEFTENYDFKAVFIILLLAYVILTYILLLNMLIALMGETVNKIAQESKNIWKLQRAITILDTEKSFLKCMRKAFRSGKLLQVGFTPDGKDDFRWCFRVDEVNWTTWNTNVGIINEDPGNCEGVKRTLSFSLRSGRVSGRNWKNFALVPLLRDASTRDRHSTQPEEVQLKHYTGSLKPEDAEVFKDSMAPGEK
The experiment is described as follows: Whole-cell current recordings, mTRPV1. Format: cell-based, murine. As to conditions: 100 μM HCQ; current activated by 5 μM capsaicin. The method, then:
(§1) To elucidate the specificity of HCQ inhibition on TRPV3, we conducted whole-cell current recordings on other known pruritus-related TRP channels, such as hTRPA1, mTRPV1, mTRPV4, and mTRPM8 (Fig. 3, A and F). […] Because of the relatively larger inhibition of HCQ on mTRPM8 current, we tested the concentration dependence of HCQ on mTRPM8 channels.
(§2) HEK293T cells are cultured using Dulbecco's modified Eagle's medium containing 10% fetal bovine serum and 1% penicillin-streptomycin in a cell incubator with 5% CO2 at 37 °C. Plasmids of murine TRPV1, TRPV4, TRPM8, and human TRPV3, TRPA1 are labeled with YFP or GFP as indicators for subsequent electrophysiological recordings. Complementary DNA constructs of ion channels were transiently transfected with Lipofectamine 3000 (Invitrogen). And 12 to 18 h after transient transfection, electrophysiological recordings were performed.
Patch-clamp recordings were carried out with a HEKA EPC10 amplifier controlled by PatchMaster software (HEKA; https://www.heka.com/products/products_main.html#soft_pm) ([36]). Patch pipettes were prepared from borosilicate glass and fire-polished to the resistance of 3 to 8 MΩ by P-97 puller for whole-cell recordings. For single-channel recordings, patch pipettes were fire-polished to a higher resistance of 6 to 10 MΩ. […]

Experiment [2] deals with T2, mTRPM8 (Mus musculus, UniProt Q8R4D5).
T2 construct: YFP or GFP; expressed in transfected cells; host or cells: HEK293T
T2 sequence (Q8R4D5 whole entry): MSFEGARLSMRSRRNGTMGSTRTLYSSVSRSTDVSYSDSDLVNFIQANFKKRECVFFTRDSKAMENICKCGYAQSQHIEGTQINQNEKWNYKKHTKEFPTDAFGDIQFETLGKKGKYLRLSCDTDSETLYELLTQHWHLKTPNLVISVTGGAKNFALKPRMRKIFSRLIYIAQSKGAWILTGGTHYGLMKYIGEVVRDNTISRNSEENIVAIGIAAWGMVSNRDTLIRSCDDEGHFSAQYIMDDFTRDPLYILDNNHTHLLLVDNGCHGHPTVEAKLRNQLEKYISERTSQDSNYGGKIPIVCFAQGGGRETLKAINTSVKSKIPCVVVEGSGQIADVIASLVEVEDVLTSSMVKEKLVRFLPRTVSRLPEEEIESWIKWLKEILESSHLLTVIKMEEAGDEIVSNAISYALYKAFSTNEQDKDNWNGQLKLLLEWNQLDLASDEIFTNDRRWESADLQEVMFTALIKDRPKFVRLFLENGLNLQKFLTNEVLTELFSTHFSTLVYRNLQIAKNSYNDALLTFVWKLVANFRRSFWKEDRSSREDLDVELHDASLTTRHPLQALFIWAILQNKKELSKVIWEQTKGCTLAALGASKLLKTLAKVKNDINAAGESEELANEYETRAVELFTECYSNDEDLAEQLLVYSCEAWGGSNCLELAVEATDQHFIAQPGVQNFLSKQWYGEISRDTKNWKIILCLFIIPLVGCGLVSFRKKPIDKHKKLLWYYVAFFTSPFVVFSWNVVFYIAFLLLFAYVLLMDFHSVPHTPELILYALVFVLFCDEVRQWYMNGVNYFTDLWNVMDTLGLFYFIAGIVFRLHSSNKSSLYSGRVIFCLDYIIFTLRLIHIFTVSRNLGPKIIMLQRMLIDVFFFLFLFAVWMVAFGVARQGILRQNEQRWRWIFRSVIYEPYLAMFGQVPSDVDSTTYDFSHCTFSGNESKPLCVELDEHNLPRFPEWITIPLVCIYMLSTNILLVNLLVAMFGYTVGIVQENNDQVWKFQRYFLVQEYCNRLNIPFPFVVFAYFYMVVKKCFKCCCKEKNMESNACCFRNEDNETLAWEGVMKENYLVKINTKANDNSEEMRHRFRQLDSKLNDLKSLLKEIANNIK
Briefly: Whole-cell current recordings, mTRPM8. Format: cell-based, murine. The procedure:
as §1, §2
Patch-clamp recordings were carried out with a HEKA EPC10 amplifier controlled by PatchMaster software (HEKA; https://www.heka.com/products/products_main.html#soft_pm) ([36]). Patch pipettes were prepared from borosilicate glass and fire-polished to the resistance of 3 to 8 MΩ by P-97 puller for whole-cell recordings. For single-channel recordings, patch pipettes were fire-polished to a higher resistance of 6 to 10 MΩ. Both bath solution and pipette solution contained 130 mM NaCl, 10 mM glucose, 0.2 mM EDTA, and 3 mM Hepes and were adjusted to pH 7.2 to 7.4 with NaOH. Whole-cell recordings and single-channel recordings were performed at ± 80 mV. The current was sampled at 10 kHz and filtered at 2.9 kHz. All recordings were performed at room temperature (25 °C). A gravity-driven system (RSC-200, Bio-Logic) with freely rotated perfusion tubes was used for the perfusion of ligands. Bath and ligand solutions were delivered through separate tubes to minimize the mixing of solutions. […]
All data from whole-cell recordings were analyzed in Igor Pro (WaveMetrics). IC50 values were determined by fitting the Hill equation to concentration-response relationships. […]

Experiment [3] has as its system TNF-α, IL-6, IgE, IL-4 in mouse dorsal skin tissues. The experiment is described as follows: Carvacrol-induced AD-like mouse model: inflammatory factors by ELISA. Format: in vivo. The method, then:
We therefore generated a carvacrol-induced AD mouse model to test the effect of HCQ.
To generate an AD-like mice model, 2% carvacrol (dissolved in 30% ethanol solution) was topically smeared onto the mice dorsum 1 day after hair removal with a depilatory cream (Vetin Depilatory Cream). Mice received a topical administration of an equal volume (200 μl) of 2% carvacrol or in the presence of 2 mg/ml HCQ. […] After the application of carvacrol for 5 days, the external appearance of mice was photographed and then sampled. The external appearance was graded based on three aspects: thickness, erythema/bleeding, and dryness/desquamation, with severity assessed on a score of 0 to 4. The degree of thickness was measured by the thickness of the skin in H&E staining. Skin tissues were either fixed in 4% paraformaldehyde or placed in PBS buffer containing 1% protease inhibitor, facilitating subsequent steps of paraffin embedding or ELISA experiments.
Animal skin tissues were placed in PBS buffer containing 1% protease inhibitors, then homogenized, and centrifuged for supernatants. Cytokine concentrations of supernatants (IL-4, IL-6, TNF-α, and IgE) were measured using ELISA kits (Tsingke) according to the manufacturer's instructions. The absorption at 450 nm was measured by a microplate reader (Thermo Multiskan MK3).
(An ELISA detects its analyte on a solid surface through an enzyme-linked reagent.)

Where [4] appears, read: mouse tissues, HCQ 2 mg/ml topical with 2% carvacrol, 5 days.

For the compound `CCN(CCO)CCCC(C)Nc1ccnc2cc(Cl)ccc12` (centres unmarked) [HCQ, hydroxychloroquine], in experiment [1], the “reduction of mTRPV1 current” value is 12.37% ± 5.32%. For the same compound, the “reduction of mTRPM8 current” value in experiment [2] (100 μM HCQ, current activated by 1 mM menthol) was 27.94% ± 10.91%. Also, the half-inhibitory concentration (IC50) in experiment [2] (concentration dependence, whole-cell, read-out: IC50 on mTRPM8 channels) is 263 ± 88.6 µM. In addition, the “IC50 of mTRPM8 relative to IC50 of hTRPV3” value in experiment [2] (selectivity ratio) was “more than 5 fold”. In addition, the “suppression of serum IgE levels” value in experiment [3] (HCQ 2 mg/ml topical with 2% carvacrol, 5 days) is given as 60.22 ± 11.26%. In addition, the “IL-4 levels compared to the model group” value in experiment [3] (mouse tissues, HCQ 2 mg/ml or DXM 1 mg/ml topical with 2% carvacrol) is on record as “no significant difference”. Moreover, in experiment [3] (setting [4]), the “inhibition of release of carvacrol-induced IL-6” value is reported as 77.09% ± 5.38% and the “inhibition of release of carvacrol-induced TNF-α” value was 88.10% ± 4.12%.
